Converted amounts (≈) assume the structure as drawn.

A word on the solubility (kinetic): it is the concentration staying in solution when a stock, usually in DMSO, is diluted into the medium.

For the series the following is noted: buffer; pH 7.4; 200.0 µM.
Regarding `Cc1ccc(NC(=O)COc2ccc(N(C)C(=O)C(C)(C)C)cc2)cc1S(=O)(=O)N1CCCCC1`, the kinetic solubility is 6.7 µg/mL (≈ 13.4 µM).
The value for `O=C(CN1C(=O)c2ccc([N+](=O)[O-])cc2C1=O)NCc1ccco1` was > 49.4 µg/mL; that for `O=C(Nc1cccc(Cl)c1)OC1CN2CCC1CC2` (configuration not stated) was 3.6 µg/mL (≈ 12.8 µM).
Under `C=C(C)Cn1cnc2cc(C)c(C)cc21` stands > 30 µg/mL; under `CCOC(=O)c1cnc(Cc2ccccc2)[nH]c1=O`, 37.3 µg/mL (≈ 144 µM).
As to `CCOC(=O)c1sc(NC(=O)C2CCCCC2)nc1C`, the kinetic solubility was 5 µg/mL (≈ 16.9 µM). This solubility kinetic lies about 7.5-fold lower than the previous one.
Under `CC1CC(C)CN(C(=O)Cc2c(C(=O)O)[nH]c3ccc(Cl)cc23)C1` (configuration not stated) stands > 52.3 µg/mL; under `O=C1CN(C(=O)/C=C/c2ccccc2)CCN1`, > 34.5 µg/mL.
With `O=C(NC1CCCCC1)c1cc(-c2ccc(Cl)cc2)on1`, the kinetic solubility stood at 0.5 µg/mL (≈ 1.64 µM).
Under `Cn1c(CNC(=O)C2CCCCC2)cc2ccccc21` stands 1.7 µg/mL (≈ 6.29 µM); under `O=C(CCC(=O)c1cccs1)NCc1ccccc1Cl`, 45.4 µg/mL (≈ 147 µM).
As to `CC1CN(C(=O)CNC(=O)COc2ccccc2)CC(C)O1` (configuration not stated), the kinetic solubility was > 46 µg/mL.
Regarding `COc1ccc2oc(C(=O)OC(C)C(=O)N3C(C)CCCC3C)c(C)c2c1` (configuration not stated), the solubility (kinetic) came out at 8.4 µg/mL (≈ 22.5 µM).
For `Cc1cccc2cc3ccccc3nc12`, the kinetic solubility is < 0.4 µg/mL.
Consider `O=C(CSc1ccc([N+](=O)[O-])cn1)Nc1nccs1`, for which the solubility (kinetic) amounted to 1.9 µg/mL (≈ 6.41 µM).
Take `CC(=O)c1c(C)n(-c2ccccc2Br)c2ccc(O)cc12`: the kinetic solubility is 1 µg/mL (≈ 2.91 µM).
The compound `CS(=O)(=O)Oc1ccc2c(c1)O/C(=C\c1cccnc1)C2=O` displayed a kinetic solubility of 5 µg/mL (≈ 15.8 µM).
The value for `C=CCn1c(O)c(C(C)=NCC2CCCO2)c(=O)[nH]c1=O` (configuration not stated) was > 44 µg/mL; that for `Cc1ccc(NC(=O)C=NOCC(=O)Nc2cc(C)cc(C)c2)cc1` was 3.5 µg/mL (≈ 10.3 µM); that for `CC(C)n1c(O)c(C=NCc2cccnc2)c(=O)[nH]c1=S` was > 45.7 µg/mL.
`CSc1ncccc1C(=O)OCC(=O)N1CCc2ccccc21` gave a solubility (kinetic) of 2 µg/mL (≈ 6.09 µM).
The value for `Cc1ccc(OC(=O)CCC(=O)Nc2ccc(C)c(C)c2)cc1` was 43.2 µg/mL (≈ 139 µM); that for `O=C(Nc1cccc(Cl)c1)Nc1ccccc1C(=O)O` was > 43.6 µg/mL.
For `COc1ccc(-c2nc(C(=O)O)cs2)cc1OC`, the solubility (kinetic) is > 39.8 µg/mL.
Under `O=C(COc1ccc2c3c(c(=O)oc2c1)CCC3)N1CCCC1` stands 15.8 µg/mL (≈ 50.4 µM).
For the compound `Cc1cc(C)c(C#N)c(N)n1`, the kinetic solubility is > 22.1 µg/mL.
As for `Cc1ccnc(NC(=O)C(C)N2C(=O)c3ccccc3C2=O)c1` (configuration not stated), the solubility (kinetic) came out at 39.4 µg/mL (≈ 127 µM).
Consider `COC(=O)c1cccc(NC(=O)CCNC(=O)c2ccco2)c1`, for which the kinetic solubility was > 47.4 µg/mL.
As for `COc1ccc(CCNC(=O)C(=O)NCC2CCNCC2)cc1OC`, the kinetic solubility was > 52.4 µg/mL.
As for `OCC1CCCN(c2ncnc3scc(-c4ccccc4)c23)C1` (configuration not stated), the solubility (kinetic) came to 47.4 µg/mL (≈ 146 µM).
`CN(CC(=O)NCc1ccco1)CC(=O)Nc1ccc(F)c(F)c1F` registered a solubility (kinetic) of 45.2 µg/mL (≈ 127 µM).
In turn, `CCN1CCC(N2CCN(c3ccc(Cl)cc3)CC2)CC1` registered a kinetic solubility of 15.7 µg/mL (≈ 51 µM). This solubility kinetic lies about 2.9-fold lower than the previous one.
For `O=C(NC1CCCCC1)c1cc(-c2ccc(O)cc2)on1`, the kinetic solubility is < 0.3 µg/mL.
Regarding `COc1ccc(C(=O)Nc2ccc(NC(=O)C(C)C)nc2)cc1`, the solubility (kinetic) worked out at 3.1 µg/mL (≈ 9.89 µM).
For `CCCCN(C(=O)Oc1ccccc1)C1CCS(=O)(=O)C1` (configuration not stated), the kinetic solubility was > 46.7 µg/mL.
`COc1cccc(NC(=O)Nc2nc(SC(C)(C)C)ns2)c1`: the solubility (kinetic) came to 1.1 µg/mL (≈ 3.25 µM).
The compound `COc1ccc(S(=O)(=O)N2CCOCC2)cc1NC(=O)Cc1ccsc1` had a kinetic solubility of 7.6 µg/mL (≈ 19.2 µM).
Under `CC(C)(C)c1ccc(C(=O)N2CCN(c3ncccn3)CC2)cc1` stands 9.6 µg/mL (≈ 29.6 µM).
`CSc1ccccc1NC(=O)COC(=O)CCc1ccccc1` gave a kinetic solubility of 27.8 µg/mL (≈ 84.4 µM).
On to `CC(=O)Nc1cccc(C(=O)OCCCOc2ccc(F)cc2)c1`, for which the kinetic solubility came to 2.6 µg/mL (≈ 7.85 µM). Against the preceding compound, the solubility kinetic is about 11-fold lower.
The value for `Cc1ccccc1NC(=S)N1CCN(c2ccccc2)CC1` was 0.6 µg/mL (≈ 1.93 µM); that for `NS(=O)(=O)c1ccc(CCNC(=O)COC(=O)C2COc3ccccc3O2)cc1` (configuration not stated) was > 63.1 µg/mL; that for `O=S(=O)(Nc1ccc(Cl)cn1)c1cccs1` was > 41.2 µg/mL.
The compound `Cc1cc2c(Nc3ccccc3)ncnc2s1.Cl` yielded a solubility (kinetic) of 13 µg/mL.
Take `Cc1ccc2c(c1)C1(OCCCO1)C(=O)N2`: the solubility (kinetic) is > 32.9 µg/mL.
Regarding `CC1CN(Cc2ccccc2)C(C)CC1O` (configuration not stated), the kinetic solubility was > 32.9 µg/mL.
Under `Cc1cc(C)n(-c2ccnc3cc(Cl)ccc23)n1` stands > 38.7 µg/mL.
Under `O=C(Nc1nnc(-c2ccco2)o1)c1cccc(N2C(=O)CCC2=O)c1` stands > 52.8 µg/mL.
The value for `Cc1cc(C(=O)N2CCCC(C(=O)c3cc(F)ccc3F)C2)c(C)o1` (configuration not stated) was 42.5 µg/mL (≈ 122 µM).
`Cn1c(N)c(C(=O)COC(=O)CNC(=O)c2ccc(Cl)cc2Cl)c(=O)n(C)c1=O` displayed a solubility (kinetic) of 10.2 µg/mL (≈ 23 µM). This solubility kinetic lies about 4.2-fold lower than the previous one.
Under `Cc1ccc(CN2CCN(C(=O)CC(C)C)CC2)cc1` stands 25.1 µg/mL (≈ 91.5 µM); under `CCOc1ccccc1NC(=O)N1CCCN(c2ncccc2C#N)CC1`, 45.7 µg/mL (≈ 125 µM).

The values are drawn from PubChem BioAssay AID1996.
